The values below come from patent US7842685B2, “S1P1 receptor agonists and use thereof” (Amgen Inc., priority 2008, dated 2010).

The target of the assay is T1, hS1P1 receptor (Homo sapiens, UniProt P21453).
T1 construct: host or cells: U2OS
The assay is described as follows: hS1P1 receptor internalization assay (cell imaging-based, hS1P1-eGFP U2OS cells). The note with it: U2OS cell line expressing hS1P1-eGFP, compounds incubated at 37° C. for one hour; for Emax: 1 h, efficacy (Max), read-out: hS1P1 Receptor Internalization (biolimaging) Max (%); for EC50: GFP-containing endosomes per cell (ArrayScan), read-out: hS1P1 Receptor Internalization (bioimaging) EC50 IP. The procedure:
The activity of compounds of the invention was determined by a cell imaging-based assay measuring the degree of hS1P1 receptor internalization and a Ca^2+ mobilization assay measuring the level of S1P receptor activation. The receptor internalization assay was employed to determine the potency and efficacy of compounds on hS1P1 receptor, while Ca^2+ mobilization assay was used to determine selectivity among different S1P receptors and activity on S1P receptors from species such as rat, dog, and cyno. The hS1P1 receptor internalization assay was performed using a U2OS cell line expressing hS1P1-eGFP chimeric protein (Thermo Scientific, Soeborg, Denmark). Upon compound treatment, the hS1P1 receptor was internalized in cytoplasma and formed GFP-containing-endosomes. This event was detected by an automated microscope, ArrayScan (Thermo Scientific Cellomics, Pittsburg), and the degree of receptor internalization is quantitated by counting green fluorescent GFP-containing endosomes per cell. In this assay, hS1P1-eGFP expressing U2OS cells were starved in serum free media for two hours prior to compound treatment. Then compounds were incubated with the starved cells at 37° C. for one hour. Subsequently, compound-treated cells were fixed using 4% formaldehyde, and the nuclei were stained using Hoechst. Then the cells were imaged in ArrayScan. The potency and efficacy of the compounds were determined by plotting the number of green fluorescent GFP-containing endosomes per cell against corresponding compound concentration.

The structures appear in SMILES notation. Where a name gives a salt, the structure may show the parent alone.

T1 sequence (P21453 whole entry): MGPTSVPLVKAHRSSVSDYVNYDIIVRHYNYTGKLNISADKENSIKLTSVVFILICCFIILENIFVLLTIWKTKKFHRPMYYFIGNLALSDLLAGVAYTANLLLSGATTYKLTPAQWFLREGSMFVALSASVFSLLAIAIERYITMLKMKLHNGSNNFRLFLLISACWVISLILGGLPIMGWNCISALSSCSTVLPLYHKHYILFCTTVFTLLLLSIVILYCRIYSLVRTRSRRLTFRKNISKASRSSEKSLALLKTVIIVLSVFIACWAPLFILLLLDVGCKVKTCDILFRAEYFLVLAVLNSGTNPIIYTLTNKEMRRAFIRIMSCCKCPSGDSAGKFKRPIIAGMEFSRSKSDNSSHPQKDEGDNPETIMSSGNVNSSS

Regarding `O=C(O)CC1CN(Cc2ccc(-c3nc4ccc(C5(c6ccccc6)CC5)nc4s3)c(F)c2)C1` [Example 79, 2-(1-(3-fluoro-4-(5-(1-phenylcyclopropyl)thiazolo[5,4-b]pyridin-2-yl)-benzyl)azetidin-3-yl)acetic acid], the Emax came out at 150% and the 50% effective concentration (EC50) is 0.0384 µM.
As to `c1ccc(C2(c3ccc4nc(-c5ccc6c(c5)CCNC6)sc4n3)CC2)cc1` [Example 80, 5-(1-phenylcyclopropyl)-2-(1,2,3,4-tetrahydroisoquinolin-6-yl)thiazolo-[5,4-b]pyridine], the Emax was 148% and the concentration giving a half-maximal response (EC50) came to 0.563 µM.
As for `O=C(O)CN1CCc2cc(-c3nc4ccc(C5(c6ccccc6)CC5)nc4s3)ccc2C1` [Example 82, 2-(6-(5-(1-phenylcyclopropyl)thiazolo[5,4-b]pyridin-2-yl)-3,4-dihydroisoquinolin-2(1H)-yl)acetic acid], the Emax was 106% and the EC50 was 0.0461 µM.
Regarding `O=C(O)COCc1ccc(-c2nc3ccc(C4(c5ccccc5)CC4)nc3s2)c(F)c1` [Example 85, 2-(3-fluoro-4-(5-(1-phenylcyclopropyl)thiazolo[5,4-b]pyridin-2-yl)benzyloxy)acetic acid], the Emax came to 88% and the EC50 amounted to 1.27 µM.
Take `C[C@H](CC(=O)O)NCc1ccc(-c2nc3ccc(C4(c5ccccc5)CC4)nc3s2)c(F)c1` [Example 91, (R)-3-(3-fluoro-4-(5-(1-phenylcyclopropyl)thiazolo[5,4-b]pyridin-2-yl)benzylamino)butanoic acid hydrochloride]: the Emax is 131% and the concentration giving a half-maximal response (EC50) stood at 0.0327 µM.
Turning to `O=C(O)c1cn(Cc2ccc(-c3nc4ccc(C5(c6ccccc6)CC5)nc4s3)c(F)c2)cn1` [Example 96, 1-(3-fluoro-4-(5-(1-phenylcyclopropyl)thiazolo[5,4-b]pyridin-2-yl)benzyl)-1H-imidazole-4-carboxylic acid hydrochloride], the Emax is 105% and the EC50 amounted to 0.0109 µM.
As to `O=C(O)c1cnn(Cc2ccc(-c3nc4ccc(C5(c6ccccc6)CC5)nc4s3)c(F)c2)c1` [Example 98, 1-(3-fluoro-4-(5-(1-phenylcyclopropyl)thiazolo[5,4-b]pyridin-2-yl)benzyl)-1H-pyrazole-4-carboxylic acid hydrochloride], the Emax stood at 93% and the concentration giving a half-maximal response (EC50) stood at 0.0449 µM.
In the case of `O=C(c1ccc(-c2nc3ccc(C4(c5ccccc5)CC4)nc3s2)c(F)c1)N1CCC1` [Example 105, 2-(4-(1-azetidinylcarbonyl)-2-fluorophenyl)-5-(1-phenylcyclopropyl)-[1,3]thiazolo[5,4-b]pyridine], the Emax stood at 63% and the concentration giving a half-maximal response (EC50) worked out at 3.33 µM.
Consider `CN(CCO)C(=O)c1ccc(-c2nc3ccc(C4(c5ccccc5)CC4)nc3s2)c(F)c1` [Example 109, 3-fluoro-N-(2-hydroxyethyl)-N-methyl-4-(5-(1-phenylcyclopropyl)-[1,3]thiazolo[5,4-b]pyridin-2-yl)benzamide], for which the Emax is 41% and the half-maximal effective concentration (EC50) was found to be 2.35 µM.
Turning to `O=C(NC1CC1)c1ccc(-c2nc3ccc(C4(c5ccccc5)CC4)nc3s2)c(F)c1` [Example 113, N-cyclopropyl-3-fluoro-4-(5-(1-phenylcyclopropyl)[1,3]thiazolo[5,4-b]pyridin-2-yl)benzamide], the Emax was 55% and the 50% effective concentration (EC50) was 0.732 µM.
As to `O=C(Nc1ccc(-c2nc3ccc(C4(c5ccccc5)CC4)nc3s2)c(F)c1)C(F)(F)F` [Example 118, 2,2,2-trifluoro-N-(3-fluoro-4-(5-(1-phenylcyclopropyl)[1,3]thiazolo[5,4-b]pyridin-2-yl)phenyl)acetamide], the Emax is 111% and the half-maximal effective concentration (EC50) came out at 0.298 µM.
Regarding `CNc1ccc(-c2nc3ccc(C4(c5ccccc5)CC4)nc3s2)c(F)c1` [Example 121, 3-fluoro-N-methyl-4-(5-(1-phenylcyclopropyl)[1,3]thiazolo[5,4-b]pyridin-2-yl)aniline], the Emax stood at 125% and the EC50 is 0.777 µM.
For the compound `O=C(O)CCS(=O)(=O)Nc1ccc(-c2nc3ccc(C4(c5ccccc5)CC4)nc3s2)c(F)c1` [Example 124, 3-((3-fluoro-4-(5-(1-phenylcyclopropyl)[1,3]thiazolo[5,4-b]pyridin-2-yl)phenyl)sulfamoyl)propanoic acid], the Emax is 131% and the half-maximal effective concentration (EC50) was 0.946 µM.
The like results for `N[C@H](CC(=O)O)C(=O)Nc1ccc(-c2nc3ccc(C4(c5ccccc5)CC4)nc3s2)c(F)c1` [Example 126, N-(3-fluoro-4-(5-(1-phenylcyclopropyl)[1,3]thiazolo[5,4-b]pyridin-2-yl)phenyl)-D-alpha-asparagine TFA salt] were, in that order, 100% and 0.0006 µM.
In the case of `O=C(O)[C@H]1C[C@@H](Nc2ccc(-c3nc4ccc(C5(c6ccccc6)CC5)nc4s3)c(F)c2)C1` [Example 130, cis-3-((3-fluoro-4-(5-(1-phenylcyclopropyl)[1,3]thiazolo[5,4-b]pyridin-2-yl)phenyl)amino)cyclobutanecarboxylic acid], the Emax came to 89% and the EC50 was 0.0116 µM.
Turning to `O=C(O)C[C@H](O)C(=O)Nc1ccc(-c2nc3ccc(C4(c5ccccc5)CC4)nc3s2)c(F)c1` [Example 133, (3S)-4-(3-fluoro-4-(5-(1-phenylcyclopropyl)thiazolo[5,4-b]pyridin-2-yl)phenylamino)-3-hydroxy-4-oxobutanoic acid], the Emax came out at 133% and the EC50 worked out at 0.0022 µM.
Regarding `c1ccc(C2(c3ccc4nc(-c5ccc6[nH]ccc6c5)sc4n3)CC2)cc1` [Example 136, 2-(1H-indol-5-yl)-5-(1-phenylcyclopropyl)thiazolo[5,4-b]pyridine], the Emax came to 101% and the EC50 came out at 0.191 µM.
As for `CC(=O)NCCc1ccc(-c2nc3ccc(C4(c5ccccc5)CC4)nc3s2)c(F)c1` [Example 150, N-(2-(3-fluoro-4-(5-(1-phenylcyclopropyl)[1,3]thiazolo[5,4-b]pyridin-2-yl)phenyl)ethyl)acetamide], the Emax turned out to be 155% and the EC50 amounted to 0.184 µM.

Broadly, the EC50 is the concentration that produces a half-maximal response.
